Literature values in publication PMC12030314, “Biomarker-Driven Pharmacokinetics and Efficacy of Polymyxin B in Critically Ill Patients with XDR-GN Pneumonia” (Pharmaceuticals, 2025).
Read-outs that look alike come from different tables or passages of the source.

Assays:
[1] = ref Lamer et al. 103, cited from earlier work
[2] = significant individual variation; cited from earlier work
Source text: Colistin (colistin methanesulfonate, CMS) and polymyxin B (PMB) are polymyxins that were approved for clinical use in the 1950s worldwide. Colistin is clinically administered as a prodrug, which requires conversion to the active form in vivo. […] The elimination of colistin is primarily dependent on renal function. Patients with renal impairment are prone to drug accumulation and increased nephrotoxicity risk. PMB is ... || Finally, we cannot rule out the possibility of the potential impacts of other combined drugs on PMB PK and the heterogeneity among the patients in our study. To date, little evidence supports the conclusion that the combined use of other drugs affects PMB PK. Studies have shown that urinary recovery from PMB is low (<5%). […] Further studies examining the nonrenal routes of PMB elimination are warranted, ...

Row | Compound | ELF/plasma value ([1]; patients with lung inflammation (ELF albumin ≥ 3.4 mg/mL)) | ELF/plasma value ([1]; patients without lung inflammation (ELF albumin <3.4 mg/mL)) | conversion efficiency of the prodrug to the active form in vivo [2]
1 | CN[C@H](CC(C)C)C(=O)N[C@H]1C(=O)N[C@@H](CC(N)=O)C(=O)N[C@H]2C(=O)N[C@H]3C(=O)N[C@H](C(=O)N[C@H](C(=O)O)c4cc(O)cc(O)c4-c4cc3ccc4O)[C@H](O)c3ccc(c(Cl)c3)Oc3cc2cc(c3O[C@@H]2O[C@H](CO)[C@@H](O)[C@H](O)[C@H]2O[C@H]2C[C@](C)(N)[C@H](O)[C@H](C)O2)Oc2ccc(cc2Cl)[C@H]1O [vancomycin] | 0.246 [0.192–0.426] | 0.14 [0.023–0.285] | –
2 | colistin methanesulfonate | – | – | 20–25%
